Biological target: T1, hNPRA (Homo sapiens, UniProt P16066)
T1 construct: expressed in transfected cells
T1 sequence (P16066 33-1061): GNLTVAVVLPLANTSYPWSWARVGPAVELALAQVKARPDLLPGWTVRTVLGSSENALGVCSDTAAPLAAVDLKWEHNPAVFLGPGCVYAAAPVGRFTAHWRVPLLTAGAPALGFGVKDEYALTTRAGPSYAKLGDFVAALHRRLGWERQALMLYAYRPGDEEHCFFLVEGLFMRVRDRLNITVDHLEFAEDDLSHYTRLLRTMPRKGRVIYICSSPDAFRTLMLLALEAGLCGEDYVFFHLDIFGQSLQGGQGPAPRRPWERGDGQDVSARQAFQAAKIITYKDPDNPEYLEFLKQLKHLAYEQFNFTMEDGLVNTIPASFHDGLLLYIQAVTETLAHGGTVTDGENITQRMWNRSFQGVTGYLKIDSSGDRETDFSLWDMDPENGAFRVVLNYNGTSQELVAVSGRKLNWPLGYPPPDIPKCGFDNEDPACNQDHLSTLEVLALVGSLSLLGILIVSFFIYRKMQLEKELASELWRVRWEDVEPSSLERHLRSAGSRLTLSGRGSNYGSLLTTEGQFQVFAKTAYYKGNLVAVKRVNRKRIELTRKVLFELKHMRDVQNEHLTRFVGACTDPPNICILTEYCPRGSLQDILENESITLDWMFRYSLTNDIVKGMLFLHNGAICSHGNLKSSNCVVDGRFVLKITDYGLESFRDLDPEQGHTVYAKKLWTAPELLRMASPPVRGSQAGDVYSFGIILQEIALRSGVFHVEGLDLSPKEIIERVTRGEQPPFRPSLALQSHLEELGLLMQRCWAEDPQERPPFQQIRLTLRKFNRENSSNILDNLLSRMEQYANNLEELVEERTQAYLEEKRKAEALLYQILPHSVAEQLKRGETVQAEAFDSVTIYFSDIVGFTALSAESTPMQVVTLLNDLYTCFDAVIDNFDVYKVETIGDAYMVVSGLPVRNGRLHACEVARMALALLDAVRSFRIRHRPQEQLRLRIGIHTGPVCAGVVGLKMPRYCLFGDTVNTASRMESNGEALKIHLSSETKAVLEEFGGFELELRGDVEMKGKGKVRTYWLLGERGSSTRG
Assay: NPRA Functional Cell Assay (cGMP HTRF)
Assay type: cell-based
Conditions: Human NPRA HEK JumpIn stable cells; cGMP by HTRF after 1 hour at 37° C.; 10-point dose response
Method in brief: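 HEK JumpIn cells stably expressing human, rat or dog NPRA incubated 1 hour at 37° C with compound (10-point titration) in Opti-MEM buffer with 100 uM IBMX and 100 uM RO20. cGMP measured by HTRF against an on-plate calibration curve; EC50 from 4-parameter fit, positive control 10 nM rat-ANP (rat) or 50 nM h-ANP (human, dog).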

EC50 [nM]	Compound
753	CC(C)(C)[C@H]1CCc2nc3ccc(C(=O)N[C@H](CCN4CCC(O)CC4)c4ccc(N5CCOC5=O)cc4)cc3cc2C1 [Example 3, (7S)-7-tert-butyl-N-{(1R)-3-(4-hydroxypiperidin-1-yl)-1-[4-(2-oxo-1,3-oxazolidin-3-yl)phenyl]propyl}-5,6,7,8-tetrahydroacridine-2-carboxamide]
1980	C[Si](C)(C)[C@H]1CCc2nc3ccc(C(=O)N[C@H](CCN4CCC(O)CC4)c4ccc(N5CCOC5=O)cc4)cc3cc2C1 [Example 5, (7S)-N-{(1R)-3-(4-hydroxypiperidin-1-yl)-1-[4-(2-oxo-1,3-oxazolidin-3-yl)phenyl]propyl}-7-(trimethylsilyl)-5,6,7,8-tetrahydroacridine-2-carboxamide]
2550	Cc1cc(C(=O)N[C@H](CCN2CCC(O)CC2)c2ccc(N3CCOC3=O)cc2)cc2cc3c(nc12)CCC(C(C)(C)C)C3 (stereo partly drawn) [Example 9, 7-(tert-butyl)-N-((R)-3-(4-hydroxypiperidin-1-yl)-1-(4-(2-oxooxazolidin-3-yl)phenyl)propyl)-4-methyl-5,6,7,8-tetrahydroacridine-2-carboxamide+]
112	CC(C)[C@]1(F)CCc2nc3c(F)cc(C(=O)N[C@H](CCN4CCC(O)CC4)c4ccc(-c5ccnnc5)nc4)cc3cc2C1 [Example 10, (7S)-4,7-difluoro-N-[(1R)-3-(4-hydroxypiperidin-1-yl)-1-(6-pyridazin-4-ylpyridin-3-yl)propyl]-7-(1-methylethyl)-5,6,7,8-tetrahydroacridine-2-carboxamide]
343	CC(C)[C@]1(F)CCc2nc3c(F)cc(C(=O)N[C@H](CCN4CCC5(CCCO5)CC4)c4ccc(-c5ccnnc5)nc4)cc3cc2C1 [Example 16, (7S)-4,7-difluoro-7-(1-methylethyl)-N-[(1R)-3-(1-oxa-8-azaspiro[4.5]dec-8-yl)-1-(6-pyridazin-4-ylpyridin-3-yl)propyl]-5,6,7,8-tetrahydroacridine-2-carboxamide]
203	CC(C)[C@]1(F)CCc2nc3c(F)cc(C(=O)N[C@H](CCN4CCC(O)(CO)CC4)c4ccc(-c5ccnnc5)nc4)cc3cc2C1 [Example 19, (7S)-4,7-difluoro-N-[(1R)-3-[4-hydroxy-4-(hydroxymethyl)piperidin-1-yl]-1-(6-pyridazin-4-ylpyridin-3-yl)propyl]-7-(1-methylethyl)-5,6,7,8-tetrahydroacridine-2-carboxamide]
125	CC(C)[C@]1(F)CCc2nc3c(F)cc(C(=O)N[C@H](CCN4CCC(O)CC4)c4cnc(-c5ccnnc5)c(F)c4)cc3cc2C1 [Example 20, (7S)-4,7-difluoro-N-[(1R)-1-(5-fluoro-6-pyridazin-4-ylpyridin-3-yl)-3-(4-hydroxypiperidin-1-yl)propyl]-7-(1-methylethyl)-5,6,7,8-tetrahydroacridine-2-carboxamide]

Further lines, the molecule ahead of its results:

Compound	EC50 [nM]
CCS(=O)(=O)c1ccc([C@@H](CCN2CCC(O)CC2)NC(=O)c2cc(F)c3nc4c(cc3c2)CC(F)(C(C)C)CC4)cn1 (stereo in doubt) [Example 30, (S)-N-((R)-1-(6-(ethylsulfonyl)pyridin-3-yl)-3-(4-hydroxypiperidin-1-yl)propyl)-4,7-difluoro-7-isopropyl-5,6,7,8-tetrahydroacridine-2-carboxamide]	970
CC1([C@H]2CCc3nc4ccc(C(=O)N[C@H](CCN5CCC(O)CC5)c5ccc(N6CCOC6=O)cc5)cc4cc3C2)CC1 [Example 1, (S)-N-((R)-3-(4-hydroxypiperidin-1-yl)-1-(4-(2-oxooxazolidin-3-yl)phenyl)propyl)-7-(1-methylcyclopropyl)-5,6,7,8-tetrahydroacridine-2-carboxamide]	701
CC1([C@H]2CCc3nc4ccc(C(=O)N[C@H](CCN5CCC[C@H]5CO)c5ccc(N6CCOC6=O)cc5)cc4cc3C2)CC1 [Example 2, (S)-N-((R)-3-((S)-2-(hydroxymethyl)pyrrolidin-1-yl)-1-(4-(2-oxooxazolidin-3-yl)phenyl)propyl)-7-(1-methylcyclopropyl)-5,6,7,8-tetrahydroacridine-2-carboxamide]	1720
O=C(N[C@H](CCN1CCC(O)CC1)c1ccc(N2CCOC2=O)cc1)c1ccc2nc3c(cc2c1)C[C@@H](C1(C(F)(F)F)CC1)CC3 [Example 4, (7S)-N-{(1R)-3-(4-hydroxypiperidin-1-yl)-1-[4-(2-oxo-1,3-oxazolidin-3-yl)phenyl]propyl}-7-[1-(trifluoromethyl)cyclopropyl]-5,6,7,8-tetrahydroacridine-2-carboxamide]	2220
CC(C)[C@]1(F)CCc2nc3c(F)cc(C(=O)N[C@H](CCN4CCC(O)CC4)c4ccc(N5CCOC5=O)cc4)cc3cc2C1 [Example 6, (7S)-4,7-difluoro-N-{(1R)-3-(4-hydroxypiperidin-1-yl)-1-[4-(2-oxo-1,3-oxazolidin-3-yl)phenyl]propyl}-7-(1-methylethyl)-5,6,7,8-tetrahydroacridine-2-carboxamide]	114
CC(C)[C@]1(F)CCc2nc3c(F)c(F)c(C(=O)N[C@H](CCN4CCC(O)CC4)c4ccc(N5CCOC5=O)cc4)cc3cc2C1 [Example 7, (7S)-3,4,7-trifluoro-N-{(1R)-3-(4-hydroxypiperidin-1-yl)-1-[4-(2-oxo-1,3-oxazolidin-3-yl)phenyl]propyl}-7-(1-methylethyl)-5,6,7,8-tetrahydroacridine-2-carboxamide]	251
CC(C)[C@]1(F)CCc2nc3c(F)cc(C(=O)N[C@H](CCN4CCC(O)CC4(C)C)c4ccc(-c5ccnnc5)nc4)cc3cc2C1 (stereo partly drawn) [Example 11, (7S)-4,7-difluoro-N-[(1R)-3-(4-hydroxy-2,2-dimethylpiperidin-1-yl)-1-(6-pyridazin-4-ylpyridin-3-yl)propyl]-7-(1-methylethyl)-5,6,7,8-tetrahydroacridine-2-carboxamide]	219
CC(C)[C@]1(F)CCc2nc3c(F)cc(C(=O)N[C@H](CCN4CCC(C)(O)CC4)c4ccc(-c5ccnnc5)nc4)cc3cc2C1 [Example 12, (7S)-4,7-difluoro-N-[(1R)-3-(4-hydroxy-4-methylpiperidin-1-yl)-1-(6-pyridazin-4-ylpyridin-3-yl)propyl]-7-(1-methylethyl)-5,6,7,8-tetrahydroacridine-2-carboxamide]	205
CC(C)[C@]1(F)CCc2nc3c(F)cc(C(=O)N[C@H](CCN4CCC(O)(C(=O)O)CC4)c4ccc(-c5ccnnc5)nc4)cc3cc2C1 [Example 13, 1-[(3R)-3-({[(7S)-4,7-difluoro-7-(1-methylethyl)-5,6,7,8-tetrahydroacridin-2-yl]carbonyl}amino)-3-(6-pyridazin-4-ylpyridin-3-yl)propyl]-4-hydroxypiperidine-4-carboxylic acid]	855
CC(C)[C@]1(F)CCc2nc3c(F)cc(C(=O)N[C@H](CCN4CC5CC(C4)C5(O)C(F)(F)F)c4ccc(-c5ccnnc5)nc4)cc3cc2C1 (stereo partly drawn) [Example 14, (7S)-4,7-difluoro-N-[(1R)-3-[6-hydroxy-6-(trifluoromethyl)-3-azabicyclo[3.1.1]hept-3-yl]-1-(6-pyridazin-4-ylpyridin-3-yl)propyl]-7-(1-methylethyl)-5,6,7,8-tetrahydroacridine-2-carboxamide]	2090
CC(C)[C@]1(F)CCc2nc3c(F)cc(C(=O)N[C@H](CCN4CCC5(O)CCCCC5C4)c4ccc(-c5ccnnc5)nc4)cc3cc2C1 (stereo partly drawn) [Example 15, (7S)-4,7-difluoro-N-[(1R)-3-(4a-hydroxyoctahydroisoquinolin-2(1H)-yl)-1-(6-pyridazin-4-ylpyridin-3-yl)propyl]-7-(1-methylethyl)-5,6,7,8-tetrahydroacridine-2-carboxamide]	257
CC(C)[C@]1(F)CCc2nc3c(F)cc(C(=O)N[C@H](CCN4CCC5(CCO5)CC4)c4ccc(-c5ccnnc5)nc4)cc3cc2C1 [Example 17, (7S)-4,7-difluoro-7-(1-methylethyl)-N-[(1R)-3-(1-oxa-7-azaspiro[3.5]non-7-yl)-1-(6-pyridazin-4-ylpyridin-3-yl)propyl]-5,6,7,8-tetrahydroacridine-2-carboxamide]	217
COC1CCN(CC[C@@H](NC(=O)c2cc(F)c3nc4c(cc3c2)C[C@](F)(C(C)C)CC4)c2ccc(-c3ccnnc3)nc2)CC1 [Example 18, (7S)-4,7-difluoro-N-[(1R)-3-(4-methoxypiperidin-1-yl)-1-(6-pyridazin-4-ylpyridin-3-yl)propyl]-7-(1-methylethyl)-5,6,7,8-tetrahydroacridine-2-carboxamide]	147

— US20220281886A1, “NATRIURETIC PEPTIDE RECEPTOR A AGONISTS USEFUL FOR THE TREATMENT OF CARDIOMETABOLIC DISEASES, KIDNEY DISEASE AND DIABETES” (Merck Sharp & Dohme Corp., priority 2019, published 2022)
